Each block holds one compound with its values, some of them ahead of it.
Experiment: photoluminescence quantum yield (fraction); solvent given as SMILES

SMILES: COc1ccc(C2=C3C(C)=CC(C)=[N+]3[B-](F)(F)n3c(/C=C/c4ccc(N(C)C)cc4)cc(C)c32)cc1
photoluminescence quantum yield (in C1CCCCC1): 0.97 | photoluminescence quantum yield (in C1CCOC1): 0.56 | photoluminescence quantum yield (in C1COCCO1): 0.77 | photoluminescence quantum yield (in CC1CCCCC1): 0.86 | photoluminescence quantum yield (in CC#N): 0.09 | photoluminescence quantum yield (in CC(C)=O): 0.27 | photoluminescence quantum yield (in CC(C)OC(C)C): 0.87 | photoluminescence quantum yield (in CCC#N): 0.19 | photoluminescence quantum yield (in CCCC#N): 0.27 | photoluminescence quantum yield (in CCCCO): 0.59 | photoluminescence quantum yield (in CCCCOCCCC): 0.91 | photoluminescence quantum yield (in CCOC(C)=O): 0.59 | photoluminescence quantum yield (in CCOCC): 0.93 | photoluminescence quantum yield (in CN(C)C=O): 0.08 | photoluminescence quantum yield (in CO): 0.16 | photoluminescence quantum yield (in CS(C)=O): 0.056 | photoluminescence quantum yield (in Cc1ccccc1): 0.85 | photoluminescence quantum yield (in ClC(Cl)Cl): 0.82

photoluminescence quantum yield (in CO): 0.148 | photoluminescence quantum yield (in O): 0.047
SMILES: CN(C)c1ccc2c(c1)C(C)(C)C1=CC(=[N+](C)C)C=CC1=C2C#Cc1ccccc1

photoluminescence quantum yield (in CC#N): 0.46 | photoluminescence quantum yield (in CO): 0.35 | photoluminescence quantum yield (in ClCCl): 0.86
SMILES: COC(=O)c1ccc(O)c(-c2[nH]c(=O)n3c2-c2ccccc2C3=O)c1

SMILES: CC(C)(C)c1ccc2c(c1)c1cc(C(C)(C)C)ccc1n2-c1cc(C(=O)c2ccccn2)cc(-n2c3ccc(C(C)(C)C)cc3c3cc(C(C)(C)C)ccc32)c1
photoluminescence quantum yield (in Cc1ccccc1): 0.072 | photoluminescence quantum yield (in c1cc(-c2cccc(-n3c4ccccc4c4ccccc43)c2)cc(-n2c3ccccc3c3ccccc32)c1): 0.96

SMILES: Cc1ccc(C2=C3C=CC(C#Cc4ccccc4)=[N+]3[B-](F)(F)n3c(C#Cc4ccccc4)ccc32)cc1
photoluminescence quantum yield (in C1CCCCC1): 1 | photoluminescence quantum yield (in C1CCOC1): 0.99 | photoluminescence quantum yield (in C1COCCO1): 1 | photoluminescence quantum yield (in CCOC(C)=O): 1 | photoluminescence quantum yield (in CO): 1 | photoluminescence quantum yield (in Cc1ccccc1): 1 | photoluminescence quantum yield (in ClC(Cl)Cl): 1 | photoluminescence quantum yield (in ClCCl): 1

SMILES: CN(C)CCNCc1c2ccccc2cc2ccccc12
photoluminescence quantum yield (in C1CCCCC1): 0.0769 | photoluminescence quantum yield (in C1CCOC1): 0.00216 | photoluminescence quantum yield (in CC#N): 0.00137 | photoluminescence quantum yield (in CC(C)=O): 0.0234 | photoluminescence quantum yield (in CCO): 0.0179 | photoluminescence quantum yield (in CN(C)C=O): 0.00064 | photoluminescence quantum yield (in CO): 0.0124 | photoluminescence quantum yield (in ClC(Cl)Cl): 0.0315

photoluminescence quantum yield (in CCO): 0.031 | photoluminescence quantum yield (in CS(C)=O): 0.012 | photoluminescence quantum yield (in O): 0.013
SMILES: CC1(C)C(/C=C/c2cc3ccc(O)cc3oc2=O)=[N+](CCCS(=O)(=O)[O-])c2ccc(S(=O)(=O)O)cc21

SMILES: COc1ccc2c3cccc4c(OC)ccc(c5cccc1c52)c43
photoluminescence quantum yield (in C1CCOC1): 0.88 | photoluminescence quantum yield (in Cc1ccccc1): 0.76 | photoluminescence quantum yield (in ClC(Cl)(Cl)Cl): 0.05 | photoluminescence quantum yield (in ClC(Cl)Cl): 0.82 | photoluminescence quantum yield (in ClCCl): 0.94 | photoluminescence quantum yield (in c1ccncc1): 0.9

photoluminescence quantum yield (in ClCCl): 0.51
SMILES: CCCCCc1ccc(-c2ccc(C#Cc3cc(C#Cc4ccc(-c5ccc(CCCCC)cc5)cc4)c4ccc5c(C(=O)c6ccccc6)cc(C#Cc6ccc(-c7ccc(CCCCC)cc7)cc6)c6ccc3c4c65)cc2)cc1

SMILES: CC(C)(C)c1ccc(C(C)(C)C)c(N2C(=O)c3cccc4c(-c5ccc(-c6ccc([N+](=O)[O-])cc6)s5)ccc(c34)C2=O)c1
photoluminescence quantum yield (in CO): 0.03 | photoluminescence quantum yield (in CS(C)=O): 0.17 | photoluminescence quantum yield (in Cc1ccccc1): 0.07

photoluminescence quantum yield (in CC#N): 0.32 | photoluminescence quantum yield (in ClCCl): 0.48
SMILES: COC(=O)c1cc(=O)n(C)c2cc(-c3cccc(OC)c3)sc12

photoluminescence quantum yield (in CC#N): 0.918
SMILES: CCCCNc1nn(-c2ccc(OC)cc2)nc1C#N

photoluminescence quantum yield (in CCO): 0.019
SMILES: CCOC(=O)c1cc(C(=O)OCC)c2ccc(C)cc2n1

SMILES: Cc1cccc(C2=CC3=C(c4c(C)cc(C)cc4C)c4cc(-c5cccc(C)c5)c(-c5cccc(C)c5)n4[B-](F)(F)[N+]3=C2c2cccc(C)c2)c1
photoluminescence quantum yield (in C1CCCCC1): 0.41 | photoluminescence quantum yield (in C1CCOC1): 0.33 | photoluminescence quantum yield (in CC#N): 0.24 | photoluminescence quantum yield (in Cc1ccccc1): 0.44 | photoluminescence quantum yield (in ClCCl): 0.3

photoluminescence quantum yield (in C1CCCCC1): 0.13 | photoluminescence quantum yield (in CC#N): 0.01 | photoluminescence quantum yield (in ClC(Cl)Cl): 0.05
SMILES: O=C1Cc2cc3c(cc2CCCc2ccc(cc2)CCC3)CC(=O)Cc2ccc(c3nsnc23)C1

photoluminescence quantum yield (in ClCCl): 0.49
SMILES: COc1cccc(OC)c1-c1c2ccc(=[N+]3CCN(C(=O)OC(C)(C)C)CC3)cc-2oc2cc(N3CCN(C(=O)OC(C)(C)C)CC3)ccc12

photoluminescence quantum yield (in CN(C)C=O): 0.088
SMILES: Cc1nc2cccc(-c3nc4ccccc4[nH]3)c2c(=O)[nH]1

photoluminescence quantum yield (in C1CCCCC1): 0.64 | photoluminescence quantum yield (in ClC(Cl)Cl): 0.06
SMILES: Clc1cc(Cl)c([C](c2c(Cl)cc(Cl)cc2Cl)c2c(Cl)cc(-n3c4ccccc4c4ccccc43)cc2Cl)c(Cl)c1

photoluminescence quantum yield (in CCO): 0.064 | photoluminescence quantum yield (in ClCCl): 0.157 | photoluminescence quantum yield (in O): 0.014
SMILES: CC[N+](CC)=c1ccc2c(C(F)(F)F)c3oc4cc(N)ccc4c3oc-2c1

SMILES: CCCCCCCCCCCn1cccc1C1=[N+]2C(=Cc3c(C)cc(C)n3[B-]2(F)F)c2ccccc21
photoluminescence quantum yield (in C1CCOC1): 0.98 | photoluminescence quantum yield (in CC#N): 0.99 | photoluminescence quantum yield (in CCCCCC): 0.99 | photoluminescence quantum yield (in CO): 0.96 | photoluminescence quantum yield (in Cc1ccccc1): 0.99 | photoluminescence quantum yield (in ClCCl): 0.99

photoluminescence quantum yield (in ClC(Cl)Cl): 0.73
SMILES: CCCCN1C(=O)c2ccc3c4c(Br)cc5c6c(ccc(c7c(Br)cc(c2c37)C1=O)c64)C(=O)N(CCCC)C5=O

photoluminescence quantum yield (in C1CCOC1): 0.78 | photoluminescence quantum yield (in C1COCCO1): 0.73 | photoluminescence quantum yield (in CC#N): 0.7 | photoluminescence quantum yield (in CC(C)O): 0.55 | photoluminescence quantum yield (in CCO): 0.47 | photoluminescence quantum yield (in CCOC(C)=O): 0.76 | photoluminescence quantum yield (in CN(C)C=O): 0.87 | photoluminescence quantum yield (in CO): 0.38 | photoluminescence quantum yield (in CS(C)=O): 0.88 | photoluminescence quantum yield (in O): 0.54
SMILES: COc1ccc(C2CC(c3ccc(O)cc3)=NN2c2ccc(S(N)(=O)=O)cc2)cc1 (stereo unspecified)

photoluminescence quantum yield (in CCO): 0.02
SMILES: O=CC1=C(c2ccc(-c3cccs3)s2)CCC1

photoluminescence quantum yield (in CCO): 0.715
SMILES: Cc1c(COC(=O)Cc2c[nH]c3ccccc23)n2c(OCC(=O)Cc3c[nH]c4ccccc34)c(C)c(=O)n2c1=O

photoluminescence quantum yield (in ClCCl): 0.022
SMILES: CCCCN1C(=O)c2ccc3c4ccc5c6c(cc(-c7ccc(C(=C(c8ccccc8)c8ccccc8)c8ccccc8)cc7)c(c7ccc(c2c37)C1=O)c64)C(=O)N(CCCC)C5=O

photoluminescence quantum yield (in CCCCCCC): 0.73
SMILES: c1ccc2cc3c(cc2c1)-c1cccc2c1c-3cc1ccccc12

SMILES: CC1=[N+]2C(=C(c3c4ccccc4c(-c4ccccc4)c4ccccc34)c3ccc(C)n3[B-]2(F)F)C=C1
photoluminescence quantum yield (in CC#N): 0.004 | photoluminescence quantum yield (in CCCCCC): 0.773 | photoluminescence quantum yield (in CCO): 0.006 | photoluminescence quantum yield (in CN(C)C=O): 0.004 | photoluminescence quantum yield (in Cc1ccccc1): 0.141 | photoluminescence quantum yield (in ClCCl): 0.007

photoluminescence quantum yield (in C1CCOC1): 0.027
SMILES: CCCCC1(CCCC)c2cc(C#Cc3ccc(C=C4c5ccccc5CCc5ccccc54)cc3)ccc2-c2ccc(C#Cc3ccc(C=C4c5ccccc5CCc5ccccc54)cc3)cc21

photoluminescence quantum yield (in C1CCCCC1): 0.07 | photoluminescence quantum yield (in CC#N): 0.07
SMILES: C[Si](C)(c1c2ccccc2cc2ccccc12)[Si](C)(C)c1c2ccccc2cc2ccccc12

photoluminescence quantum yield (in CCCCCC): 0.26
SMILES: CC(C)[Si](C#Cc1c2cc3ccccc3cc2c(C#C[Si](C(C)C)(C(C)C)C(C)C)c2nc3c(ccc4cc5ccccc5cc43)nc12)(C(C)C)C(C)C

SMILES: CN(C)CCN(Cc1c2ccccc2cc2ccccc12)c1ccc([N+](=O)[O-])cn1
photoluminescence quantum yield (in C1CCCCC1): 0.0003 | photoluminescence quantum yield (in C1CCOC1): 0.0009 | photoluminescence quantum yield (in CC#N): 0.0383 | photoluminescence quantum yield (in CC(C)=O): 0.00324 | photoluminescence quantum yield (in CCO): 0.0115 | photoluminescence quantum yield (in CN(C)C=O): 0.0398 | photoluminescence quantum yield (in CO): 0.00453 | photoluminescence quantum yield (in ClC(Cl)Cl): 0.005

photoluminescence quantum yield (in C1COCCO1): 0.56 | photoluminescence quantum yield (in CC#N): 0.45 | photoluminescence quantum yield (in CCCCOCCCC): 0.46 | photoluminescence quantum yield (in CCOC(C)=O): 0.5
SMILES: CC(=O)Nc1ccc2c3cccc4cccc(c5cccc1c52)c43

photoluminescence quantum yield (in C1CCCCC1): 0.14
SMILES: c1ccccc1

photoluminescence quantum yield (in CS(C)=O): 0.11
SMILES: Clc1ccc(-c2nc3ccccc3c3cc4ccccn4c23)s1

photoluminescence quantum yield (in ClCCl): 0.425
SMILES: COc1ccc2c(c1)CCC1=C(C#Cc3cc4ccccc4c4ccccc34)O[B-](F)(F)[O+]=C12

photoluminescence quantum yield (in C1CCOC1): 0.66
SMILES: CCCCCCOc1ccc(/C=C/c2ccc(N(c3ccc(/C=C/c4ccc(OCCCCCC)cc4)cc3)c3ccc(-c4nc5ccccc5nc4-c4ccc(N(c5ccc(/C=C/c6ccc(OCCCCCC)cc6)cc5)c5ccc(/C=C/c6ccc(OCCCCCC)cc6)cc5)cc4)cc3)cc2)cc1

photoluminescence quantum yield (in ClC(Cl)Cl): 0.54
SMILES: CCCCc1cc(-c2cccc(COC)c2)oc1-c1cccc(-c2cc(CCCC)c(-c3cccc(-c4cc(CCCC)c(-c5cccc(-c6oc(-c7cccc(-c8oc(-c9cccc(-c%10oc(-c%11cccc(COC)c%11)cc%10CCCC)c9)cc8CCCC)c7)cc6CCCC)c5)o4)c3)o2)c1

photoluminescence quantum yield (in C1CCCCC1): 0.11
SMILES: N#Cc1cc(C#N)c(-c2cc(-n3c4ccccc4c4ccccc43)cc(-n3c4ccccc4c4ccccc43)c2)cc1-c1cc(-n2c3ccccc3c3ccccc32)cc(-n2c3ccccc3c3ccccc32)c1

photoluminescence quantum yield (in CC#N): 0.97 | photoluminescence quantum yield (in CO): 0.1 | photoluminescence quantum yield (in CS(C)=O): 0.01 | photoluminescence quantum yield (in ClC(Cl)Cl): 0.65
SMILES: O=C1C=CC2=Cc3ccccc3B(O)N12

SMILES: CC(C)(C)c1ccc2c(c1)c1cc(C(C)(C)C)ccc1n2-c1ccc(C#Cc2ccc(C#Cc3ccc(-n4c5ccc(C(C)(C)C)cc5c5cc(C(C)(C)C)ccc54)cc3)cc2)cc1
photoluminescence quantum yield (in CC#N): 0.67 | photoluminescence quantum yield (in CCCCC): 0.89 | photoluminescence quantum yield (in CO): 0.41 | photoluminescence quantum yield (in Cc1ccccc1): 0.86 | photoluminescence quantum yield (in ClC(Cl)Cl): 0.69 | photoluminescence quantum yield (in ClCCl): 0.89

SMILES: CC1(C)c2ccccc2N(c2ccc(C(=CC#N)c3ccc(N4c5ccccc5C(C)(C)c5ccccc54)cc3)cc2)c2ccccc21
photoluminescence quantum yield (in Cc1ccccc1): 0.313

photoluminescence quantum yield (in ClCCl): 0.27
SMILES: Cc1ccc2nc3cc4c(cc3c(-c3ccccc3)c2c1)[Si](C)(C)O[Si]4(C)C

photoluminescence quantum yield (in ClCCl): 0.23
SMILES: CCCCN(CCCC)c1ccc2c(c1)C#CC#Cc1cc(C(F)(F)F)ccc1C#Cc1cc(c3cc1C#Cc1ccc(C(F)(F)F)cc1C#CC#Cc1cc(N(CCCC)CCCC)ccc1C#C3)C#C2

photoluminescence quantum yield (in CCO): 0.11
SMILES: C[Si]1(C)C2=CC(=[N+]3CCC3)C=C(F)C2=Nc2c(F)cc(N3CCC3)cc21
